Measurements: PubChem BioAssay AID328 (DTP/NCI, 2004)
Several values for one entry are separate records, joined by “and”; a condition that tells them apart may be missing. Identical values can stand only once. Inconclusive results and toxic doses are left out.

Test system: BDF1 mice, P388 leukemia ip, median survival T/C
Assay: NCI In Vivo Anticancer Drug Screen. Data for tumor model P388 Leukemia (intraperitoneal) in B6D2F1 (BDF1) mice
Conditions: endpoint: median survival time, higher = longer survival
How it was run: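 Survival ratio, drug arm over vehicle arm, in mice with a transplanted tumour.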

[1] = dose: 100.0 mg/kg/injection, schedule: Q01DX009 (ip), vehicle: saline with Tween-80
[2] = dose: 200.0 mg/kg/injection, schedule: Q01DX009 (ip), vehicle: saline with Tween-80
[3] = dose: 12.5 mg/kg/injection, schedule: Q01DX009 (ip), vehicle: saline with Tween-80
[4] = dose: 25.0 mg/kg/injection, schedule: Q01DX009 (ip), vehicle: saline with Tween-80
[5] = dose: 50.0 mg/kg/injection, schedule: Q01DX009 (ip), vehicle: saline with Tween-80
[6] = dose: 100.0 mg/kg/injection, schedule: Q04DX003 (ip), vehicle: saline sonified
[7] = dose: 200.0 mg/kg/injection, schedule: Q04DX003 (ip), vehicle: saline sonified
[8] = dose: 12.5 mg/kg/injection, schedule: Q04DX003 (ip), vehicle: saline with Tween-80
[9] = dose: 25.0 mg/kg/injection, schedule: Q04DX003 (ip), vehicle: saline with Tween-80
[10] = dose: 50.0 mg/kg/injection, schedule: Q04DX003 (ip), vehicle: saline with Tween-80
[11] = dose: 25.0 mg/kg/injection, schedule: Q01DX009 (ip), vehicle: saline
[12] = dose: 50.0 mg/kg/injection, schedule: Q01DX009 (ip), vehicle: saline
[13] = dose: 50.0 mg/kg/injection, schedule: Q04DX003 (ip), vehicle: saline
[14] = dose: 100.0 mg/kg/injection, schedule: Q04DX003 (ip), vehicle: saline
[15] = dose: 200.0 mg/kg/injection, schedule: Q04DX003 (ip), vehicle: saline
[16] = dose: 100.0 mg/kg/injection, schedule: Q04DX003 (ip), vehicle: saline with Tween-80
[17] = dose: 200.0 mg/kg/injection, schedule: Q04DX003 (ip), vehicle: saline with Tween-80
[18] = dose: 400.0 mg/kg/injection, schedule: Q04DX003 (ip), vehicle: saline with Tween-80
[19] = dose: 100.0 mg/kg/injection, schedule: Q01DX009 (ip), vehicle: saline
[20] = dose: 200.0 mg/kg/injection, schedule: Q01DX009 (ip), vehicle: saline
[21] = dose: 400.0 mg/kg/injection, schedule: Q04DX003 (ip), vehicle: saline
[22] = dose: 25.0 mg/kg/injection, schedule: Q04DX003 (ip), vehicle: saline
[23] = dose: 400.0 mg/kg/injection, schedule: Q04DX003 (ip), vehicle: saline sonified

In the case of COc1cccc(/C=C/C(=O)c2ccc(Cl)cc2)c1OC, the T/C (dose: 50.0 mg/kg/injection, schedule: Q01DX009 (ip), vehicle: other) is reported as 95 % of control, the T/C (dose: 100.0 mg/kg/injection, schedule: Q01DX009 (ip), vehicle: other) is reported as 104 % of control and the T/C [1] is reported as 100 % of control. The T/C (dose: 200.0 mg/kg/injection, schedule: Q01DX009 (ip), vehicle: other) was 95 % of control and the T/C (dose: 400.0 mg/kg/injection, schedule: Q01DX009 (ip), vehicle: saline with Tween-80) was 100 % of control.

With O=C1C=C(c2ccccc2)C(O)(c2ccccc2)C1 (configuration not stated) the T/C [1] was 102 % of control and the T/C [2] was 88 % of control.

C[n+]1c(-c2ccccc2)c2ccccc2c2ccccc21 was tested, and the T/C (dose: 0.75 mg/kg/injection, schedule: Q01DX009 (ip), vehicle: water) was 102 % of control, the T/C (dose: 1.5 mg/kg/injection, schedule: Q01DX009 (ip), vehicle: water) was 105 % of control and the T/C (dose: 1.5 mg/kg/injection, schedule: Q04DX003 (ip), vehicle: water) was 111 % of control. For the same compound, the T/C (dose: 3.0 mg/kg/injection, schedule: Q01DX009 (ip), vehicle: water) was 105 % of control, the T/C (dose: 3.0 mg/kg/injection, schedule: Q04DX003 (ip), vehicle: water) was 111 % of control and the T/C (dose: 6.0 mg/kg/injection, schedule: Q04DX003 (ip), vehicle: water) was 93 % of control.

For Clc1[nH]nc2ccccc12, the T/C [3] was 91 % of control, the T/C [4] was 87 % of control and the T/C [5] was 95 % of control. For the same compound, the T/C (dose: 50.0 mg/kg/injection, schedule: Q04DX003 (ip), vehicle: saline sonified) was 90 % of control, the T/C [1] was 100 % of control and the T/C [6] was 90 % of control. The T/C [7] was 90 % of control.

For CP12(OC(=O)c3ccccc31)OC(=O)c1ccccc12, the T/C [5] was 91 % of control, the T/C [1] was 91 % of control and the T/C [2] was 96 % of control.

In the case of CCN(CC)Cc1cc(Nc2cc(C)nc(Nc3ccc(Cl)c(Cl)c3)n2)ccc1OC, the T/C [8] is reported as 110 % of control, the T/C [9] is reported as 110 % of control and the T/C [10] is reported as 110 % of control.

In the case of NOCc1cccc(CON)c1, the T/C (dose: 12.5 mg/kg/injection, schedule: Q01DX009 (ip), vehicle: saline) is reported as 100 % of control, the T/C [11] is reported as 87 % of control and the T/C [12] is reported as 91 % of control. For the same compound, the T/C [13] was 91 % of control, the T/C [14] was 91 % of control and the T/C [15] was 91 % of control.

In the case of COc1cc([C@@H]2Oc3cc([C@@H]4Oc5cc(O)cc(O)c5C(=O)[C@H]4O)ccc3O[C@H]2CO)ccc1O, the T/C [16] is reported as 107 % of control, the T/C [17] is reported as 93 % of control and the T/C [18] is reported as 97 % of control.

With CN(C)c1ccc(C(=O)O)cn1 the T/C [12] was 100 % of control, the T/C [19] was 101 % of control and the T/C [14] was 102 % of control. For the same compound, the T/C (dose: 200.0 mg/kg/injection, schedule: Q01DX007 (ip), vehicle: saline) was 110 % of control, the T/C [20] was 92 % of control and the T/C [15] was 100 % of control. The T/C (dose: 300.0 mg/kg/injection, schedule: Q01DX007 (ip), vehicle: saline) was 108 % of control, the T/C (dose: 400.0 mg/kg/injection, schedule: Q01DX007 (ip), vehicle: saline) was 100 % of control and the T/C [21] was 109 % of control. For the same compound, the T/C (dose: 500.0 mg/kg/injection, schedule: Q01DX007 (ip), vehicle: saline) was 106 % of control and the T/C (dose: 600.0 mg/kg/injection, schedule: Q01DX007 (ip), vehicle: saline) was 110 % of control.

In the case of CCCCNC(C)(C)C(SSSC(c1ccco1)C(C)(C)NCCCC)c1ccco1 (configuration not stated), the T/C [10] is reported as 115 % of control and the T/C [17] is reported as 120 % of control.

COc1cc2c(cc1OCc1ccccc1)C=CN(C(=O)c1ccccc1)C2C#N (configuration not stated) was tested, and the T/C [11] was 105 % of control, the T/C [22] was 103 % of control and the T/C [12] was 92 % of control. The T/C [13] was 100 % of control, the T/C [19] was 93 % of control and the T/C [14] was 97 % of control. For the same compound, the T/C [20] was 90 % of control, the T/C [15] was 103 % of control and the T/C (dose: 400.0 mg/kg/injection, schedule: Q01DX009 (ip), vehicle: saline) was 96 % of control. For the same compound, the T/C [21] was 97 % of control.

For O=NN(CCCl)C(=O)Nc1ccccc1, the T/C (dose: 8.0 mg/kg/injection, schedule: Q04DX003 (ip), vehicle: saline with Tween-80) was 233 % of control, the T/C (dose: 8.25 mg/kg/injection, schedule: Q04DX003 (ip), vehicle: saline with Tween-80) was 231 % of control and the T/C (dose: 12.0 mg/kg/injection, schedule: Q04DX003 (ip), vehicle: saline with Tween-80) was 311 % of control. For the same compound, the T/C [8] was 272 % of control, the T/C (dose: 18.0 mg/kg/injection, schedule: Q04DX003 (ip), vehicle: saline with Tween-80) was 261 % of control and the T/C (dose: 18.75 mg/kg/injection, schedule: Q04DX003 (ip), vehicle: saline with Tween-80) was 104 % of control.

In the case of CC1(C)c2ccccc2C2C1C1(Cl)C(=O)C2(Cl)C(Cl)=C1Cl (configuration not stated), the T/C [6] is reported as 100 % of control, the T/C [7] is reported as 95 % of control and the T/C [23] is reported as 100 % of control.

In the case of CCOC(=O)C(=O)C1CCNC1=O (configuration not stated), the T/C [8] is reported as 100 % of control, the T/C [9] is reported as 100 % of control and the T/C [10] is reported as 100 % of control.

CCN1CCC(OC(=O)c2ccccc2)(c2nccc3ccccc23)CC1 was tested, and the T/C [3] was 102 % of control, the T/C [4] was 111 % of control and the T/C [5] was 124 % of control.

For c1ccc2c(c1)Cc1c(NC3=NCCO3)cccc1-2, the T/C [10] was 95 % of control, the T/C [16] was 95 % of control and the T/C [17] was 108 % of control. For the same compound, the T/C [18] was 100 % of control.

For O=C(O/N=C1\C2CCC(C2)C1Cl)c1ccc([N+](=O)[O-])cc1 (configuration not stated), the T/C (dose: 12.5 mg/kg/injection, schedule: Q04DX003 (ip), vehicle: saline) was 100 % of control, the T/C [22] was 96 % of control and the T/C [13] was 103 % of control.

For O=C(/C(=N/Nc1ccccc1)c1ccccc1)c1ccccc1, the T/C (dose: 100.0 mg/kg/injection, schedule: Q04DX003 (ip), vehicle: Klucel (hydroxypropylcellulose) (HPC)) was 104 % of control, the T/C (dose: 200.0 mg/kg/injection, schedule: Q04DX003 (ip), vehicle: Klucel (hydroxypropylcellulose) (HPC)) was 100 % of control and the T/C (dose: 400.0 mg/kg/injection, schedule: Q04DX003 (ip), vehicle: Klucel (hydroxypropylcellulose) (HPC)) was 113 % of control.

With CCOC(=O)C(C)(Br)C(=O)OCC the T/C [22] was 109 % of control, the T/C [13] was 100 % of control and the T/C [14] was 113 % of control.

In the case of O=C1NCCS1, the T/C [6] is reported as 90 % of control, the T/C [7] is reported as 90 % of control and the T/C [23] is reported as 95 % of control.

In the case of CCCCC(=O)NC(=O)c1ccccc1, the T/C [1] is reported as 104 % of control, the T/C [16] is reported as 108 % of control and the T/C [2] is reported as 104 % of control. For the same compound, the T/C [17] was 104 % of control and the T/C [18] was 100 % of control.

In the case of NC(=S)N/N=C/c1ccc(O)cn1, the T/C (dose: 18.8 mg/kg/injection, schedule: Q01DX009 (ip), vehicle: saline with Tween-80) is reported as 189 % of control, the T/C (dose: 25.0 mg/kg/injection, schedule: Q01DX001 (ip), vehicle: Klucel (hydroxypropylcellulose) (HPC)) is reported as 100 % of control and 109 % of control and the T/C (dose: 25.0 mg/kg/injection, schedule: Q01DX010 (ip), vehicle: saline) is reported as 172 % of control. For the same compound, the T/C (dose: 25.0 mg/kg/injection, schedule: Q04DX002 (ip), vehicle: Klucel (hydroxypropylcellulose) (HPC)) was 103 % of control, the T/C (dose: 25.0 mg/kg/injection, schedule: Q04DX003 (ip), vehicle: Klucel (hydroxypropylcellulose) (HPC)) was 122 % of control and the T/C (dose: 37.5 mg/kg/injection, schedule: Q01DX009 (ip), vehicle: saline with Tween-80) was 219 % of control. The T/C (dose: 50.0 mg/kg/injection, schedule: Q01DX010 (ip), vehicle: saline) was 200 % of control, the T/C (dose: 75.0 mg/kg/injection, schedule: Q01DX009 (ip), vehicle: saline with Tween-80) was 178 % of control and the T/C (dose: 100.0 mg/kg/injection, schedule: Q01DX010 (ip), vehicle: saline) was 227 % of control. For the same compound, the T/C (dose: 200.0 mg/kg/injection, schedule: Q01DX010 (ip), vehicle: saline) was 100 % of control.

For CCOC(CCC#N)c1ccccc1 (configuration not stated), the T/C (dose: 266.0 mg/kg/injection, schedule: Q04DX003 (ip), vehicle: saline with Tween-80) was 114 % of control, the T/C [18] was 114 % of control and the T/C (dose: 600.0 mg/kg/injection, schedule: Q04DX003 (ip), vehicle: saline with Tween-80) was 119 % of control.

With Cc1cc(=O)cc(C(=O)O)o1 the T/C [22] was 113 % of control, the T/C [13] was 100 % of control and the T/C [14] was 90 % of control.

COc1c(Br)cc(/C=C(/C)[N+](=O)[O-])cc1Br was tested, and the T/C [16] was 114 % of control and the T/C [17] was 160 % of control.
